SMILES strings stand for the structures. pIC50: −log10 of the molar value. Like-named read-outs stand apart in the source and are kept apart here.

In one series the target is JAK1 (Homo sapiens (Human), UniProt P23458). Description: JAK1 enzymatic inhibition assay (ADP-Glo luminescence). The series is classed as biochemical.
Another series addresses JAK3 (Homo sapiens (Human), UniProt P52333). Description: JAK3 enzymatic inhibition assay (ADP-Glo luminescence). The class given is biochemical. An excerpt:
(§1) Experimental Example 1: JAK1, JAK2, JAK3 and TYK2 Enzymatic Inhibition Assay
Background: In ADP-Glo the light output rises with the ADP produced.

The target of a further series is hERG potassium channel (Homo sapiens (Human), UniProt Q12809). In words: Predictor hERG Fluorescence Polarization Assay. The class given is binding. The note with it: tested at 3, 10 and 30 μM. The procedure:
Experimental Example 2: Safety Test
The effect of test compounds on hERG potassium channel were determined using Predictor™ hERG Fluorescence Polarization Assay at concentrations of 3, 10, and 30 μM.

For a further series, the target named is CYP1A2 (Homo sapiens (Human), UniProt P05177). In words: CYP450 enzyme test, P450-Glo screening system, CYP1A2. The series is classed as in vitro ADME. To be noted: for pIC50: human; for IC50: read-out: IC50 (μM) CYP1A2. From the text: (§2) CYP450 is the most important enzymatic system in drug metabolism. The enzymes involved in the metabolism interact with a drug, and mainly include CYP1A2, CYP2D6 and CYP3A4. In the CYP450 enzyme test, P450-Glo™ CYP1A2 screening system was employed to determine the inhibitory activity of compounds on CYP1A2 and CYP3A4. The Vivid® CYP2D6 Cyan screening kit was employed to determine the inhibitory activity of test compounds on CYP2D6.

The target of the next series is CYP2D6 (Homo sapiens (Human), UniProt P10635). Description: CYP450 enzyme test, Vivid CYP2D6 Cyan screening kit. The series is classed as in vitro ADME.
Source text: as §2

The next series addresses CYP3A4 (Homo sapiens (Human), UniProt P08684). Description: CYP450 enzyme test, P450-Glo screening system, CYP3A4. The class given is in vitro ADME.
Source text: as §2

A short description of series [1]: Pharmacokinetic study in rats, intravenous (IV) administration. The series is classed as in vivo. The note with it: male, SD, rat, plasma, IV administration at 1 mg/kg; for AUC(0-t): 0-24 h; for half-life: read-out: T½ (converted). The procedure: (§3) Experimental Example 3: Pharmacokinetic Studies
(§4) To study the pharmacokinetic characteristics of test compounds, the test compounds were administrated by intravenous (IV) and gavage (PO) routes to male SD rats. The dosage for IV administration was 1 mg/kg, and that for PO administration was 0.5-5 mg/kg. The vehicle is 10% DMSO: 10% solutol: 80% physiological saline, or 5% DMSO: 5% solutol: 90% physiological saline, or 10% DMSO: 60% PEG: 30% physiological saline. Blood was collected at various time points after administration. Plasma samples were analyzed by LC-MS/MS after protein precipitation process with acetonitrile.

The nature of series [2]: Pharmacokinetic study in rats, gavage (PO) administration. The class given is in vivo. To be noted: male, SD, rat, plasma; for AUC(0-t): po, gavage administration at 5 mg/kg, 0-24 h. The procedure: as §3, §4
Another series concerns the target JAK2 (Homo sapiens (Human), UniProt O60674). Description: JAK2 enzymatic inhibition assay (ADP-Glo luminescence). The series is classed as biochemical.
A further series has as its target TYK2 (Homo sapiens (Human), UniProt P29597). In words: TYK2 enzymatic inhibition assay (LanthaScreen TR-FRET). The class given is biochemical. The procedure: as §1
As for the TYK2 enzyme, Tb-anti-pSTAT1 was added, and incubation at room temperature was performed.
Background: TR-FRET usually uses a lanthanide donor and a delayed reading to cut background.

Series [3] in a line: Pharmacokinetic study in Rhesus monkeys, intravenous (IV) administration. The class given is in vivo. The note with it: male, rhesus monkey, plasma, IV administration at 0.5 mg/kg. The procedure:
To study the pharmacokinetic characteristics of test compounds, the test compounds were administrated by an intravenous (IV) route to male Rhesus monkeys. The dosage for IV administration was 0.5 mg/kg. Blood was collected at various time points after the IV administration. Plasma samples were analyzed by LC-MS/MS after protein precipitation process with acetonitrile. Pharmacokinetic parameters were calculated with a non-compartmental model by using WinNonlin 6.3 software.

Series [4] can be described thus: Pharmacokinetic study in Rhesus monkeys, gavage (PO) administration. The series is classed as in vivo. To be noted: male, rhesus monkey, plasma, PO administration at 1 mg/kg. The procedure: To study the pharmacokinetic characteristics of test compounds, the test compounds were administrated by a gavage (PO) route to male Rhesus monkeys. The dosage for PO administration was 1 mg/kg. Blood was collected at various time points after the PO administration. Plasma samples were analyzed by LC-MS/MS after protein precipitation process with acetonitrile. Pharmacokinetic parameters were calculated with a non-compartmental model by using WinNonlin 6.3 software.

Series [5] deals with Collagen-Induced Arthritis (CIA) Model in Rats. Description: In vivo efficacy in collagen-induced arthritis (CIA) model in rats. Also on record: species or system Lewis rats; Mean arthritis score: scale not given here. The procedure: Experimental Example 4: In Vivo Efficacy in Collagen-Induced Arthritis (CIA) Model in Rats
A mixed emulsion of bovine type II collagen and incomplete Freund's adjuvant 1:1 was injected at the back and the tail tip (3 sites) in Lewis rats. After 14 days, the paw thickness and paw volume of the rats were measured, and the arthritis development was scored. The day before the administration was set as DO, the animals were grouped based on paw volume, and the test compounds (vehicle: 5% DMSO+5% solutol) were gavage administered once a day for two weeks. The paw thickness and paw volume of the rats were measured, and the arthritis development was scored.

The mark [6] stands for this setting: D0 (day before administration), 10 mg/kg group.
The mark [7] stands for this setting: D11, 10 mg/kg gavage once a day.
Where [8] appears, read: D15, 10 mg/kg gavage once a day.

Chain of JAK3 (P52333 whole entry): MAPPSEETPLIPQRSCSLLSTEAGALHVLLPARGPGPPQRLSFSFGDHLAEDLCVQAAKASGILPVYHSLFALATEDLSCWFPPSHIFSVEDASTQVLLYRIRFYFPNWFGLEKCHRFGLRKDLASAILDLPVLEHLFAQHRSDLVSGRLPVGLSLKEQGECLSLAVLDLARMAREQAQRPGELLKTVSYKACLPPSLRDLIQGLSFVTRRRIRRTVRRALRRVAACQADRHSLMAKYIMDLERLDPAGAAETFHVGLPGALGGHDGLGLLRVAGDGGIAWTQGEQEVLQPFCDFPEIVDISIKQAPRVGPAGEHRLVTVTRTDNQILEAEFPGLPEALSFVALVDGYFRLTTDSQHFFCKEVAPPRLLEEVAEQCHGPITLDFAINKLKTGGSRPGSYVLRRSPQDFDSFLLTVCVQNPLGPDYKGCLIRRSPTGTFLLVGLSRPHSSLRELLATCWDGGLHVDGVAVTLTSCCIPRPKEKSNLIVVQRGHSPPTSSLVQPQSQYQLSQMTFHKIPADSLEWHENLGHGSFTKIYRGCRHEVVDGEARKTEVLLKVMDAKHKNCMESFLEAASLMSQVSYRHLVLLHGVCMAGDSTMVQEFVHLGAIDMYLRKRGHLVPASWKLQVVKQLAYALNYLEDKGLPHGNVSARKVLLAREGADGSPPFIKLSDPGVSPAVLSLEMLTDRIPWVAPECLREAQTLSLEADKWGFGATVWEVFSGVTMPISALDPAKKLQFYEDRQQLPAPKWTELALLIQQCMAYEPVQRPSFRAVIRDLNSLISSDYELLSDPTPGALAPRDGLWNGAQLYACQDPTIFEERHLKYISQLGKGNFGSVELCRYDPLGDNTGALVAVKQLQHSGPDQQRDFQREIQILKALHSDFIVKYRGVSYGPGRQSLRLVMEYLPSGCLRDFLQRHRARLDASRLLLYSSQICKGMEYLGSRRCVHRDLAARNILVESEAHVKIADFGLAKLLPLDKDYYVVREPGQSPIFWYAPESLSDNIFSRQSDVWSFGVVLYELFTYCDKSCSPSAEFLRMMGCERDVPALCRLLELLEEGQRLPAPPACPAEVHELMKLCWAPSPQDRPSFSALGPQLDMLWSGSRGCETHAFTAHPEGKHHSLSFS
Chain of CYP1A2 (P05177 whole entry): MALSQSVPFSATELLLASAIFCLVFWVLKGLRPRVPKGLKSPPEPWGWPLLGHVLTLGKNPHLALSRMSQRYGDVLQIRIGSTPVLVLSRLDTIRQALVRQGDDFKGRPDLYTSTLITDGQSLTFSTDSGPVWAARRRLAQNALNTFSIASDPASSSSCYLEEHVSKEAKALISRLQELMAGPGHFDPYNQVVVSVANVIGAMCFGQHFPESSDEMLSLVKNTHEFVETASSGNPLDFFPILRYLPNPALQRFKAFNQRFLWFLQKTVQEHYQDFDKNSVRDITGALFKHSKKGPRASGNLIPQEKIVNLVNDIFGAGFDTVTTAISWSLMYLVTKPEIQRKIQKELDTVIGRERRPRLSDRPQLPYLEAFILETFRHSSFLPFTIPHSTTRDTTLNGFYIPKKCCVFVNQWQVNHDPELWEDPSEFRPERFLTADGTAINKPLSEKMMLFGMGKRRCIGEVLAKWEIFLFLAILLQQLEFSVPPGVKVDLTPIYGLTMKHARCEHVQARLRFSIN
Chain of CYP3A4 (P08684 whole entry): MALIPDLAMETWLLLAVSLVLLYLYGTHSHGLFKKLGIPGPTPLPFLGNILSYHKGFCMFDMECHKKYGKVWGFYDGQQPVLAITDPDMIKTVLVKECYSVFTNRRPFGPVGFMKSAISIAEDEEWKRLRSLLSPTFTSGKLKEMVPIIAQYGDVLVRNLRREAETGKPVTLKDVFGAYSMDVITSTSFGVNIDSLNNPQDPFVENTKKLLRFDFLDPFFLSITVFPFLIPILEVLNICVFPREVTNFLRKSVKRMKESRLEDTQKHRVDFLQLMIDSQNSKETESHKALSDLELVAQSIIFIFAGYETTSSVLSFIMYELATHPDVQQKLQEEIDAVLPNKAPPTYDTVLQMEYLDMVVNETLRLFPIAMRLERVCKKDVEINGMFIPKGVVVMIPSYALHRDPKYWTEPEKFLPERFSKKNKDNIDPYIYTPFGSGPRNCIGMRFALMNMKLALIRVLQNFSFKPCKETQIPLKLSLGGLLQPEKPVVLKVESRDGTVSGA
Chain of JAK2 (O60674 whole entry): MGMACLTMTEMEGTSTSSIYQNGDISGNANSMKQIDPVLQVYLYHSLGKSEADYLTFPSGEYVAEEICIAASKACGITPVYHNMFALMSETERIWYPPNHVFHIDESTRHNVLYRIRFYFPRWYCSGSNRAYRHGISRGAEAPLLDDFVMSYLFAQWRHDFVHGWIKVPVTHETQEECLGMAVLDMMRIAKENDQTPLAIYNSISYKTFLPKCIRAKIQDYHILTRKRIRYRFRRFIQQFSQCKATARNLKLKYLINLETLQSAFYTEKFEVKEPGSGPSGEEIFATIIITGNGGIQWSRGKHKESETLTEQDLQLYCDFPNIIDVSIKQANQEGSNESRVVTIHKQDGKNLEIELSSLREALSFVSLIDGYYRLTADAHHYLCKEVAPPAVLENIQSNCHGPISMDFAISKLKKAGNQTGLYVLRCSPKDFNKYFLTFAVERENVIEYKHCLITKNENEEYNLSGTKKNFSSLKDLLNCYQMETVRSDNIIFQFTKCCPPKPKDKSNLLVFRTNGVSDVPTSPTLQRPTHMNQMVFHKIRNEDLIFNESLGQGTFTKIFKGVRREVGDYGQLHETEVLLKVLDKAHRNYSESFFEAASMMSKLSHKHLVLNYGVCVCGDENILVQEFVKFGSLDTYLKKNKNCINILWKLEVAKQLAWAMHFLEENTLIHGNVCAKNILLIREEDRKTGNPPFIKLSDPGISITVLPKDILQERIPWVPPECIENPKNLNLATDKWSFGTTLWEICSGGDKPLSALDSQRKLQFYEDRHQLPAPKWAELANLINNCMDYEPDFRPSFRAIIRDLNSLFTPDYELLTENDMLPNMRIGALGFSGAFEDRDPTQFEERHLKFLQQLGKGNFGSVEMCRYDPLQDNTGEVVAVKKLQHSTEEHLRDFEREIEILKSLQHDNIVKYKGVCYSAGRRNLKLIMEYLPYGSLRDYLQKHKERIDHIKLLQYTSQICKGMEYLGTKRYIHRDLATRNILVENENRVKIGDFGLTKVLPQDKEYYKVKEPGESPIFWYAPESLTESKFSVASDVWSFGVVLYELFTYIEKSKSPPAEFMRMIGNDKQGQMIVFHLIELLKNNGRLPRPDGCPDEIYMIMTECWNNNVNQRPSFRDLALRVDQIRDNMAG
Chain of TYK2 (P29597 whole entry): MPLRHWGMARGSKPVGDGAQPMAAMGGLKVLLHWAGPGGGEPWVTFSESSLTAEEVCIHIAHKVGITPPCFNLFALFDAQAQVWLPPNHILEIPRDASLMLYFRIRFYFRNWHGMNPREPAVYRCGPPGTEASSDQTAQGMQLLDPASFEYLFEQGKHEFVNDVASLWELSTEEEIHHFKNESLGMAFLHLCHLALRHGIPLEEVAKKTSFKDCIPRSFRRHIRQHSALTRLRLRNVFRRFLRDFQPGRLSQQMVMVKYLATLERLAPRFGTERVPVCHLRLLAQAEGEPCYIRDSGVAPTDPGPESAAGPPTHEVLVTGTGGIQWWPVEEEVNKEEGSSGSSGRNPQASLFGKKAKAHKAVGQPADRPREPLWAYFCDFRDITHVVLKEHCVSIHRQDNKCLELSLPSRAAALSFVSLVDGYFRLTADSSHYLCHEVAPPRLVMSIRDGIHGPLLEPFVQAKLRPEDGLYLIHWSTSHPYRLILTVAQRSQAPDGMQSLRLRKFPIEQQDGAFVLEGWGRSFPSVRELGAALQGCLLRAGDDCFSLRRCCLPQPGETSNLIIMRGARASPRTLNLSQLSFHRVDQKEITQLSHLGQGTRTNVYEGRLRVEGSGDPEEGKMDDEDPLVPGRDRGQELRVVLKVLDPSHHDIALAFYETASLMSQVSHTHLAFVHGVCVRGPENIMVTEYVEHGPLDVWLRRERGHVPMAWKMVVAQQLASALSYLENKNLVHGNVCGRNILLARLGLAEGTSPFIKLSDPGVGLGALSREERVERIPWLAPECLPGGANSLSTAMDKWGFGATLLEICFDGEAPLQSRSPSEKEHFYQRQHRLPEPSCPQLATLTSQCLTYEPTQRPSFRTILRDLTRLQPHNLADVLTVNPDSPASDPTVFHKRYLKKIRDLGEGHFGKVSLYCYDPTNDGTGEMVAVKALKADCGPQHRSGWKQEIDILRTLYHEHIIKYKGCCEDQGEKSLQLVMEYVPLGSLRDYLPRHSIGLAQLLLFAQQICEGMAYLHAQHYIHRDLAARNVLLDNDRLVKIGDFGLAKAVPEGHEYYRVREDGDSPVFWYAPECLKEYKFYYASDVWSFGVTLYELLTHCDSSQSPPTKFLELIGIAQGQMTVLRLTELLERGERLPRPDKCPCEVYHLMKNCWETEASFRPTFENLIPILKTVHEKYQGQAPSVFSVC
Chain of CYP2D6 (P10635 whole entry): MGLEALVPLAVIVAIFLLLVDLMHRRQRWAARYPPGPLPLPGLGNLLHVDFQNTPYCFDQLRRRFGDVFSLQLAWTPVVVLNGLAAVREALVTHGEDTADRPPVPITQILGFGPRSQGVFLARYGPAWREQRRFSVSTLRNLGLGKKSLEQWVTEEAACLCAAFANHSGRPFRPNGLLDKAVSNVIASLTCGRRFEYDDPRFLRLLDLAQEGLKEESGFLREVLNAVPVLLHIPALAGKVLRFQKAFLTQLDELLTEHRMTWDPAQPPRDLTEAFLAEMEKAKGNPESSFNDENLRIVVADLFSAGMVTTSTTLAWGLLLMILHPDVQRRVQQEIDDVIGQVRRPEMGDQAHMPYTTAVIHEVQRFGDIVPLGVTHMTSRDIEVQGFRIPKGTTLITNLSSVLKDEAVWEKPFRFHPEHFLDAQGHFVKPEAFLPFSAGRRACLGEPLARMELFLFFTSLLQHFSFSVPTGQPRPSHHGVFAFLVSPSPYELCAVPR
Protocol for JAK1: (§5) Test Materials • JAK1, JAK2, JAK3 and TYK2 enzymes were purchased from Life Technologies; and substrate GFP-STAT1 was purchased from Life Technologies.
(§6) Test compounds, enzymes, the substrate and ATP were diluted to the desired concentrations with the assay buffer (40 mM Tris-HCl, pH 7.4, 20 mM MgCl2, 0.1% BSA). The former three were added into a multiple well plate, and incubated at room temperature after being mixed homogeneously. ATP was added to initiate the kinase reaction, and incubation at room temperature was performed. ADP-Glo was added, and incubation at room temperature was performed. The kinase detector reagent was then added, and incubation at room temperature was performed. The luminescence intensity of each test group was detected, and the half maximal inhibitory concentration (IC50) value was calculated.
Protocol for JAK2: as §5, §6

On to `CS(=O)(=O)N1CC(CC#N)(n2cc(-c3ccnc4[nH]ccc34)cn2)C1` [Compound 19, 2-(3-(4-(1H-pyrrolo[2,3-b]pyridin-4-yl)-1H-pyrazol-1-yl)-1-(methylsulfonyl)azetidin-3-yl)acetonitrile], for which the IC50 against JAK1 is 0.69 nM; against JAK3, 10.3 nM; on CYP2D6 it was above 10 µM; against CYP3A4, above 10 µM. The pIC50 at hERG potassium channel is below 4.52; on CYP1A2, below 5.00. Besides, the AUC(0-t) in series [1] is 1.39 µg·h/mL; in series [2], 5.03 µg·h/mL. Besides, the half-life in [1] is 7.1 h.
For the molecule `CCS(=O)(=O)N1CC(CC#N)(n2cc(-c3ccnc4[nH]ccc34)c(Cl)n2)C1` [Compound 48, 2-(3-(3-chloro-4-(1H-pyrrolo[2,3-b]pyridin-4-yl)-1H-pyrazol-1-yl)-1-(ethylsulfonyl)azetidin-3-yl)acetonitrile], the IC50 on JAK1 is 5.66 nM; on JAK2, 1.4 nM; on CYP1A2, above 10 µM; against CYP2D6, above 10 µM; against CYP3A4, above 10 µM. In addition, the pIC50 on hERG potassium channel was below 4.52.
`CCS(=O)(=O)N1CC(CC#N)(n2cc(-c3ncnc4[nH]ccc34)cc2C#N)C1` [Compound 39, 1-(3-(cyanomethyl)-1-(ethylsulfonyl)azetidin-3-yl)-4-(7H-pyrrolo[2,3-d]pyrimidin-4-yl)-1H-pyrrole-2-carbonitrile]: the IC50 was 0.69 nM against JAK2, 10 to 30 nM at JAK3, above 10 µM against CYP2D6 and above 10 µM on CYP3A4. Besides, the pIC50 at hERG potassium channel was below 4.52; against CYP1A2, below 5.00. Moreover, in series [1], the half-life was 1.67 h.
For the molecule `CCS(=O)(=O)N1CC(CC#N)(n2cc(-c3c(F)cnc4[nH]ccc34)cn2)C1` [Compound 52, 2-(1-(ethylsulfonyl)-3-(4-(5-fluoro-1H-pyrrolo[2,3-b]pyridin-4-yl)-1H-pyrazol-1-yl)azetidin-3-yl)acetonitrile], the IC50 was 0.4 nM against JAK2, above 10 µM on CYP1A2, above 10 µM against CYP2D6 and above 10 µM against CYP3A4. Also, the pIC50 on hERG potassium channel is below 4.52.
As to `CC(C)S(=O)(=O)N1CC(CC#N)(n2cc(-c3c(C#N)cnc4[nH]ccc34)cn2)C1` [Compound 43, 4-(1-(3-(cyanomethyl)-1-(isopropylsulfonyl)azetidin-3-yl)-1H-pyrazol-4-yl)-1H-pyrrolo[2,3-b]pyridine-5-carbonitrile], the IC50 is 0.55 nM on JAK1; 2.54 nM at JAK2; 10 to 30 nM against JAK3; above 30 nM at TYK2; above 10 µM on CYP1A2; above 10 µM at CYP2D6. Moreover, the IC50 against CYP3A4 is above 10 µM. Also, at hERG potassium channel, the pIC50 is below 4.52.
Regarding `N#CCC1(n2cc(-c3ccnc4[nH]ccc34)cn2)CN(S(=O)(=O)CCC(F)(F)F)C1` [Compound 30, 2-(3-(4-(1H-pyrrolo[2,3-b]pyridin-4-yl)-1H-pyrazol-1-yl)-1-((3,3,3-trifluoropropyl)sulfonyl)azetidin-3-yl)acetonitrile], the IC50 worked out at 2.22 nM on JAK1, 2.16 nM against JAK2, 36.5 nM at JAK3 and 58.2 nM against TYK2. For the same molecule, the pIC50 at hERG potassium channel was below 4.52. Moreover, the AUC(0-t) in series [1] was determined as 3.17 µg·h/mL; in series [2] it was 32.2 µg·h/mL. Also, the half-life in series [1] is 1.5 h.
As to `CCS(=O)(=O)N1CC(CC#N)(n2cc(-c3c(C#N)cnc4[nH]ccc34)cn2)C1` [Compound 5, 4-(1-(3-(cyanomethyl)-1-(ethylsulfonyl)azetidin-3-yl)-1H-pyrazol-4-yl)-1H-pyrrolo[2,3-b]pyridine-5-carbonitrile], the IC50 is 1.49 nM at JAK2; 33.8 nM on JAK3; 27 nM against TYK2; above 10 µM against CYP2D6; above 10 µM against CYP3A4. Moreover, the pIC50 at hERG potassium channel is below 4.52; at CYP1A2, below 5.00. Besides, the AUC(0-t) is 0.834 µg·h/mL in series [1] and 3.15 µg·h/mL in [2]. Besides, the half-life in series [1] is 0.997 h.
With `CC(C)CS(=O)(=O)N1CC(CC#N)(n2cc(-c3ccnc4[nH]ccc34)cn2)C1` [Compound 25, 2-(3-(4-(1H-pyrrolo[2,3-b]pyridin-4-yl)-1H-pyrazol-1-yl)-1-(isobutylsulfonyl)azetidin-3-yl)acetonitrile], the IC50 against JAK1 was 2.29 nM; against JAK2 it was 0.83 nM; at JAK3 it was above 30 nM; on TYK2 it was above 30 nM; at CYP1A2 it was above 10 µM; on CYP2D6, above 10 µM. This molecule also showed an IC50 at CYP3A4 above 10 µM. The pIC50 at hERG potassium channel was below 4.52.
With `CCS(=O)(=O)N1CC(CC#N)(n2cc(-c3c(Cl)cnc4[nH]ccc34)cn2)C1` [Compound 50, 2-(3-(4-(5-chloro-1H-pyrrolo[2,3-b]pyridin-4-yl)-1H-pyrazol-1-yl)-1-(ethylsulfonyl)azetidin-3-yl)acetonitrile], the IC50 was 0.67 nM on JAK2, above 10 µM at CYP1A2, above 10 µM against CYP2D6 and above 10 µM against CYP3A4. Moreover, at hERG potassium channel, the pIC50 was below 4.52.
For `CCS(=O)(=O)N1CC(CC#N)(n2cc(-c3ncnc4[nH]ccc34)cn2)C1` [Baricitinib, reference compound], the AUC(0-t) in series [1] was 0.505 µg·h/mL; in [2] it was 3.05 µg·h/mL; in series [4] (0-24 h) it was 0.994 µg·h/mL. The half-life in [1] was 0.946 h; in series [2] (PO administration at 0.5-5 mg/kg, read-out: half-life (T1/2) (converted)), 1.58 h; in series [3], 1.38 h; in [4] (read-out: T½ (converted)), 1.96 h. Further, the bioavailability in series [2] (PO administration at 0.5-5 mg/kg, read-out: bioavailability (F %)) came to 55%; in series [4] it was 26.3%. Moreover, the Mean arthritis score in series [5] (setting [6]) was 3.00; in series [5] (D4, 10 mg/kg gavage once a day) it was 2.25; in [5] (D7, 10 mg/kg gavage once a day) it was 1.38; in series [5] (setting [7]), 1.75; in series [5] (setting [8]) it was 1.88. For the same molecule, the “Mean paw thickness (mm)” value in [5] (setting [6]) is 7.17 mm; in series [5] (D4, 10 mg/kg gavage once a day), 6.67 mm; in series [5] (D7, 10 mg/kg gavage once a day) it was 6.47 mm; in series [5] (setting [7]), 6.36 mm; in series [5] (setting [8]), 6.21 mm. Also, the “Mean paw volume” value is 1.71 mL in series [5] (setting [6]); 1.55 mL in series [5] (D4, 10 mg/kg gavage once a day); 1.47 mL in series [5] (D7, 10 mg/kg gavage once a day); 1.48 mL in series [5] (setting [7]); 1.59 mL in [5] (setting [8]).

The IC50 is the concentration that inhibits the measured activity by half. In general, pIC50 refers to −log10 of the IC50, conventionally taken in molar units. The AUC(0-t) is exposure summed from dosing to a finite time, without extrapolation to infinity. What is called bioavailability is the share of a dose that reaches the circulation, judged against a reference dose that is usually intravenous.

(Values after patent US11045455B2, “Azetidine derivative, preparation method therefor, and use thereof” (SICHUAN KELUN-BIOTECH BIOPHARMACEUTICAL CO., LTD., priority 2016, dated 2021).)
